The values that follow come from patent publication US8765748B2, “Indazolyl, benzimidazolyl, benzotriazolyl substituted indolinone derivatives as kinase inhibitors useful in the treatment of cancer” (University Health Network, priority 2007, dated 2014).

Common to all, as to assay type: biochemical
One assay addresses T1, PLK1 (Homo sapiens, UniProt P53350).
T1 construct: purchased Invitrogen PV3501
The assay is described as follows: PLK1 Inhibition Assay (Z-Lyte). The following applies: for inhibition at 10 µM: 10 μM compound, read-out: PLK1 relative inhibition percentage at a dose of 10 μM; for IC50: 25 μM ATP, 8 nM PLK1, read-out: PLK1 IC50 Ranges. The procedure: PLK1 inhibition was determined using the Z-Lyte assay kit from Invitrogen (cat #PV3802). […] The % inhibition values were determined according to the manufacturer's directions and IC50 values were obtained using a non-linear 4 point logistic curve fit (XLfit4, IDBS)

For the next assay, the target named is T2, Aurora B (Homo sapiens, UniProt Q96GD4).
T2 construct: purchased Invitrogen PV3970
The assay is described as follows: Aurora B Inhibition Assay (Z-Lyte). The settings on record: for IC50: 128 μM ATP, 28 nM Aurora B, read-out: Aurora B IC50 Ranges; for inhibition at 10 µM: 10 μM compound, read-out: Aurora B relative inhibition percentage at a dose of 10 μM. As for the experimental part: Aurora B inhibition was determined using the Z-Lyte assay kit from Invitrogen. The assay was performed using the recommended manufacturer's instructions with 128 μM ATP and 28 nM Aurora B (Invitrogen cat #PV3970). The % inhibition values were determined according to the manufacturer's directions and IC50 values were obtained using a non-linear 4 point logistic curve fit (XLfit4, IDBS)

A further assay deals with T3, human PLK4 (Homo sapiens, UniProt O00444).
T3 construct: amino terminal GST fusion of residues 1-391 of human PLK4; made in house; host or cells: E. coli
T3 sequence (O00444 1-391): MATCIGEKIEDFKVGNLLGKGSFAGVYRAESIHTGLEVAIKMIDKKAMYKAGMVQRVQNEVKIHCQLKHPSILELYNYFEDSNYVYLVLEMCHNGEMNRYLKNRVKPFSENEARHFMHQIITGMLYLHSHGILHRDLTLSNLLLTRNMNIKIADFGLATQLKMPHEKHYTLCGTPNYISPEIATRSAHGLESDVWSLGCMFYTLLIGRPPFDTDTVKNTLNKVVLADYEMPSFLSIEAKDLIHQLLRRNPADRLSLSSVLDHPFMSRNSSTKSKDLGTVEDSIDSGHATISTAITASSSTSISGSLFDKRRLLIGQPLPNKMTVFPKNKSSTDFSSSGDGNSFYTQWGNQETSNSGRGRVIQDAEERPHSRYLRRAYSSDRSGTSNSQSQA
The assay is described as follows: PLK4 Inhibition Assay (indirect ELISA). The following applies: 15 μM ATP, 4 nM GST-PLK4; read-out: PLK4 IC50 Ranges. In a few lines:
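IC50 values, from 4-point logistic fitting, reflect remaining activity measured by indirect ELISA. Enzyme was GST-PLK4 treated with lambda phosphatase and given a 15-minute pre-incubation with compound before ATP start.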
(ELISA stands for enzyme-linked immunosorbent assay.)

In the next assay the target is T4, Aurora A (Homo sapiens, UniProt O14965).
T4 construct: purchased Invitrogen PV3612
T4 sequence (O14965 1-403): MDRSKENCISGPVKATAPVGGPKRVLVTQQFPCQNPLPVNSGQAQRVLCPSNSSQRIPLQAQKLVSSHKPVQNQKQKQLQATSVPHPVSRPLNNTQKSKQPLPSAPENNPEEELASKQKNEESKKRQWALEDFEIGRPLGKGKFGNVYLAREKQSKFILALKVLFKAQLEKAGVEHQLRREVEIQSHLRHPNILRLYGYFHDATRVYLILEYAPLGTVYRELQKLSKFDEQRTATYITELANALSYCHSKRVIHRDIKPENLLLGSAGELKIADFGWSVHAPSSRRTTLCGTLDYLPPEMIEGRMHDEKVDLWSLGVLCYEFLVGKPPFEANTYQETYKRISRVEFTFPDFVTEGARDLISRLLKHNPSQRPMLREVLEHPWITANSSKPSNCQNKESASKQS
The assay is described as follows: Aurora A Inhibition Assay (Z-Lyte). The settings on record: for IC50: 20 μM ATP, 12 nM Aurora A, read-out: Aurora A IC50 Ranges; for inhibition at 10 µM: 10 μM compound, read-out: Aurora A relative inhibition percentage at a dose of 10 μM. The procedure:
Aurora A inhibition was determined using the Z-Lyte assay kit from Invitrogen. The assay was performed using the recommended manufacturer's instructions with 20 μM ATP and 12 nM Aurora A (Invitrogen cat #PV3612). The % inhibition values were determined according to the manufacturer's directions and IC50 values were obtained using a non-linear 4 point logistic curve fit (XLfit4, IDBS)

The target of a further assay is T5, PLK2 (Homo sapiens, UniProt Q9NYY3).
T5 construct: purchased Invitrogen PV4204
The assay is described as follows: PLK2 Inhibition Assay (Z-Lyte). The following applies: 10 μM compound; read-out: PLK2 relative inhibition percentage at a dose of 10 μM. As for the experimental part: PLK2 inhibition was determined using the Z-Lyte assay kit from Invitrogen (cat #PV3802). The assay was performed using the recommended manufacturer's instructions with 60 μM ATP and 133 nM PLK2 (Invitrogen cat #PV4204). The % inhibition values were determined according to the manufacturer's directions and IC50 values were obtained using a non-linear 4 point logistic curve fit (XLfit4, IDBS)

Structures are written as SMILES.

T2 sequence (Q96GD4 whole entry): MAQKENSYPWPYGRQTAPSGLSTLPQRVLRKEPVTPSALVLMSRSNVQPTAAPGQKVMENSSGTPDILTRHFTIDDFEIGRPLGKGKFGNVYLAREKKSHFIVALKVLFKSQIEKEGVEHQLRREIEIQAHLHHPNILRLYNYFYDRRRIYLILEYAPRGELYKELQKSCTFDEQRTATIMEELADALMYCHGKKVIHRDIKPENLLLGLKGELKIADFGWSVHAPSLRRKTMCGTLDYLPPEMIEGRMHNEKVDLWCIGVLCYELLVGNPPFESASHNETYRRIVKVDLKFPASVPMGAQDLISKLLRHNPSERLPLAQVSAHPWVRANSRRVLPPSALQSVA
T1 sequence (P53350 whole entry): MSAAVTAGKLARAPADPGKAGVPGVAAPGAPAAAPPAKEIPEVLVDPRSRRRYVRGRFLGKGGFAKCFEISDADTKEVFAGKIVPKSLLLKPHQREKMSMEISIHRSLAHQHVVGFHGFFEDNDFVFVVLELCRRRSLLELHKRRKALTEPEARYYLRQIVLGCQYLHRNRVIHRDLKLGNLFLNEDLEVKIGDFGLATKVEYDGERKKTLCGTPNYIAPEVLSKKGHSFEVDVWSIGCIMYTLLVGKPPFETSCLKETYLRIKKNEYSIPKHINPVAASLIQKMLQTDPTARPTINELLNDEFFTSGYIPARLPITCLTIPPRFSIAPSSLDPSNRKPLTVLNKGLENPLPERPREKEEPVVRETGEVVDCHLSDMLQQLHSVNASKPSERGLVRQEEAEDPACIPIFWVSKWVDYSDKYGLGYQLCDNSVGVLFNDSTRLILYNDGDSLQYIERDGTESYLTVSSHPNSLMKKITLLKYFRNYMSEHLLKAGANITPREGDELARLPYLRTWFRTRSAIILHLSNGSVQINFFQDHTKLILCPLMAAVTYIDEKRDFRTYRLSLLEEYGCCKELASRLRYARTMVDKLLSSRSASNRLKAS
T5 sequence (Q9NYY3 whole entry): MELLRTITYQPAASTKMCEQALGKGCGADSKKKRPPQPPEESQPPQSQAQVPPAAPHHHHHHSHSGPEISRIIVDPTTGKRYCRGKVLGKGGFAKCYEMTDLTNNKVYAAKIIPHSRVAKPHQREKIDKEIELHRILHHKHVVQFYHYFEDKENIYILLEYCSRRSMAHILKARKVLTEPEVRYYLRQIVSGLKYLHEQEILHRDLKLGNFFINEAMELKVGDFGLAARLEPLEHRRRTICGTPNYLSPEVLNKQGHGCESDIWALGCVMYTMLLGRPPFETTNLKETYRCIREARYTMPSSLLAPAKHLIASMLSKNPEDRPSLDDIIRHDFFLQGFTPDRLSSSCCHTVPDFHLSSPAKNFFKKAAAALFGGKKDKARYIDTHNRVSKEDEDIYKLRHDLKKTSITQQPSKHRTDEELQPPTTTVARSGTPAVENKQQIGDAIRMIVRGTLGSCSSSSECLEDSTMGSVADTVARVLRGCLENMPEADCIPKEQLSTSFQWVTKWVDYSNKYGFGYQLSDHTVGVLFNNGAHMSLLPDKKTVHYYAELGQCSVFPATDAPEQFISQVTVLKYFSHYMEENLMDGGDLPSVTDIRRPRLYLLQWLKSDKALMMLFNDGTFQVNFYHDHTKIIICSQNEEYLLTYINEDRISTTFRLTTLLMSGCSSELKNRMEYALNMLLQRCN

Take `COc1ccc2c(c1)/C(=C\c1ccc3c(/C=C/c4ccncc4Cl)n[nH]c3c1)C(=O)N2` [Example A119, (E)-3-((3-((E)-2-(3-chloropyridin-4-yl)vinyl)-1H-indazol-6-yl)methyl-ene)-5-methoxyindolin-2-one]: the inhibition at 10 µM on PLK1 and on PLK2 was less than 50% in each case. Further, the half-inhibitory concentration (IC50) on Aurora B, at human PLK4 and on Aurora A was less than 5 µM each time.
On to `O=C1Nc2ccccc2C1=Cc1ccc2c(-c3ccc[nH]3)n[nH]c2c1` (mixture of isomers) [Example A89, (E and Z)-3-((3-(1H-pyrrol-2-yl)-1H-indazol-6-yl)methylene)indolin-2-one], for which the inhibition at 10 µM on PLK1 and at PLK2 was less than 50% each time. Further, the IC50 at Aurora B, on human PLK4 and on Aurora A was less than 5 µM each time.
As for `COc1ccc2c(c1)C(=Cc1ccc3c(/C=C/c4cccnc4)n[nH]c3c1)C(=O)N2` (mixture of isomers) [Example A115, (E and Z)-5-methoxy-3-((3-((E)-2-(pyridin-3-yl)vinyl)-1H-indazol-6-yl)methylene)indolin-2-one], the inhibition at 10 µM at PLK1 and at PLK2 was less than 50% in each case. Besides, the half-maximal inhibitory concentration (IC50) on Aurora B, at human PLK4 and at Aurora A was less than 5 µM throughout.
Regarding `CC(=O)Nc1ccc2c(c1)/C(=C\c1ccc3cn[nH]c3c1)C(=O)N2` [Example A22, (E)-N-(3-((1H-indazol-6-yl)methylene)-2-oxoindolin-5-yl)acetamide], the 50% inhibitory concentration (IC50) on PLK1 is 5 to 50 µM; on Aurora B it was 5 to 50 µM; at human PLK4, less than 5 µM. Besides, the inhibition at 10 µM on Aurora A and on PLK2 was more than 50% each time.
Take `O=C1Nc2ncccc2/C1=C\c1ccc2c(/C=C/c3ccncc3)n[nH]c2c1` [Example A101, (E)-3-((3-((E)-2-(pyridin-4-yl)vinyl)-1H-indazol-6-yl)methylene)-1H-pyrrolo[2,3-b]pyridin-2(3H)-one]: the inhibition at 10 µM on PLK1 was less than 50%; at Aurora A it was more than 50%; at PLK2, less than 50%. Moreover, the 50% inhibitory concentration (IC50) at Aurora B and at human PLK4 was less than 5 µM in each case.
Consider `O=C1Nc2ccc(Br)cc2/C1=C\c1ccc2[nH]nnc2c1` [Example A3, (E)-3-((1H-benzo[d][1,2,3]triazol-5-yl)methylene)-5-bromoindolin-2-one], for which the IC50 at PLK1 was 5 to 50 µM; on Aurora B, 5 to 50 µM; on human PLK4, less than 5 µM. For the same molecule, the inhibition at 10 µM at Aurora A is less than 50%; at PLK2, more than 50%.
Take `O=C1Nc2ncc(Br)cc2C1=Cc1ccc2cn[nH]c2c1` (racemic) [Example A69, (E and Z)-3-((1H-indazol-6-yl)methylene)-5-bromo-1H-pyrrolo[2,3-b]pyridin-2(3H)-one]: the inhibition at 10 µM at PLK1, at Aurora B, at Aurora A and on PLK2 was more than 50% each time. For the same molecule, the IC50 at human PLK4 was less than 5 µM.
Consider `O=C1Nc2ccccc2C1=Cc1ccc2c(-c3cncnc3)n[nH]c2c1` (mixture of isomers) [Example A100, (E and Z)-3-((3-(pyrimidin-5-yl)-1H-indazol-6-yl)methylene)-indolin-2-one], for which the inhibition at 10 µM at PLK1 was less than 50%; at Aurora A, more than 50%; at PLK2 it was less than 50%. Moreover, the IC50 on Aurora B and at human PLK4 was less than 5 µM throughout.
`CN1CCN(C(=O)c2cccc(/C=C/c3n[nH]c4cc(C=C5C(=O)Nc6ccccc65)ccc34)c2)CC1` (mixture of isomers) [Example A107, (E and Z)-3-((3-((E)-3-(4-methylpiperazine-1-carbonyl)styryl)-1H-indazol-6-yl)methylene)indolin-2-one 2,2,2-trifluoroacetate]: the inhibition at 10 µM on PLK1 was more than 50%; at PLK2, less than 50%. Besides, the IC50 at Aurora B, at human PLK4 and on Aurora A was less than 5 µM throughout.
Take `O=C1Nc2ccc(C(=O)Nc3ccccc3)cc2/C1=C\c1ccc2cn[nH]c2c1` [Example A11, (E)-3-((1H-indazol-6-yl)methylene)-2-oxo-N-phenylindoline-5-carboxamide]: the IC50 on PLK1 was more than 50 µM; at human PLK4 it was less than 5 µM. The inhibition at 10 µM at Aurora B is more than 50%; at Aurora A, more than 50%; at PLK2 it was less than 50%.
Consider `O=C1Nc2ccccc2/C1=C\c1ccc2c(/C=C/c3ccccc3)n[nH]c2c1` [Example A58, (E)-3-((E)-(3-styryl-1H-indazol-6-yl)methylene)indolin-2-one], for which the inhibition at 10 µM on PLK1 and on PLK2 was less than 50% throughout. In addition, the concentration for half-maximal inhibition (IC50) on Aurora B, on human PLK4 and on Aurora A was less than 5 µM throughout.
On to `O=C1Nc2ccccc2C1=Cc1ccc2c(/C=C/c3cnccn3)n[nH]c2c1` (mixture of isomers) [Example A104, (E and Z)-3-((3-((E)-2-(pyrazin-2-yl)vinyl)-1H-indazol-6-yl)methylene)-indolin-2-one], for which the inhibition at 10 µM at PLK1 and at PLK2 was less than 50% throughout. Also, the half-inhibitory concentration (IC50) at Aurora B, at human PLK4 and on Aurora A was less than 5 µM throughout.

Broadly, the inhibition is the relative decrease from the control value, in per cent. A word on the IC50: it is the concentration that gives 50% inhibition.
